The text below walks through data of US7662851B2, “Use of specific cyklolignans” (Axelar AB, priority 2001, dated 2010).

Series [1] concerns the target T1, IR tyrosine kinase (Homo sapiens, UniProt P06213).
T1 construct: Immunoprecipitated IR from HepG2; endogenous in cells; host or cells: HepG2 hepatoma cells (immunoprecipitate)
In words: In vitro tyrosine kinase assay: substrate phosphorylation by IR, cell-free. The format is biochemical. The settings on record: FIG. 3. As for the experimental part:
(§1) IGF-1R-catalyzed substrate phosphorylation of polyTyrGlu (pTG) was performed essentially as previously described [Parrizas M., et al., ibid., and Blum G., et al., ibid.]. Immunoprecipitated IR from HepG2, IGF-1R from P6 cell extract and immunodepleted supernatant to assay non-IGF-1R tyrosine kinases. The phosphorylated polymer substrate was probed with a purified phosphotyrosine specific monoclonal antibody conjugated to horseradish peroxidase (HARP). Color was developed with HRP chromogenic substrate o-phenylene-diamine dihydrochloride (OPD). The color was quantitated by spectrophotometry (ELISA reader) and reflects the relative amount of tyrosine kinase. The precipitate was immunoblotted with anti-bodies to IGF-1R and IR to verify the presence of the receptor. Serial dilutions were used to assay the optimal conditions with respect to the amount of IGF-1R and IR. The signal was linear for 30 minutes and was a function of IGF-1R concentration up to 75 ng/well. […] After spectrophotometry the IC50 values of inhibitors were determined using the Regression function of Statistica program.
(§2) Therefore we isolated the receptor and determined the effects of picropodophyllin on IGF-1R catalyzed substrate tyrosine phosphorylation and IGF-1R autophosphorylation in-vitro.

For series [2], the system named is K562/S chronic myeloid leukemia cells. In words: Leukemia cell viability, K562/S. It counts as cell-based, human. The settings on record: Homo sapiens, 72 h, read-out: IC50 for cell viability. As for the experimental part:
(§3) The human chronic myeloid leukemia K562/S and K562/Vcr30 lines and the acute myeloid leukemia cell lines HL60/0 and HL60/Nov were obtained from ATCC. The K562/S and […] are wild type (non-resistant) cells, whereas K562/Vcr30 and HL60/Nov are cytostatic-resistant sublines. All leukemia cell lines were cultured in RPMI 1640 medium supplemented with 10% fetal bovine serum and with 2 mM L-glutamine, benzylpenicillin (100 U/ml) and streptomycin (100 μg/ml). The cells were grown in tissue culture flasks maintained at 95% air/5% CO2 atmosphere at 37° C. in a humidified incubator. For the experiments cells were cultured in 60-mm plastic dishes or 96-well plastic plates.
(§4) Cell proliferation kit II (Roche Inc.) is based on colorimetric change of the yellow tetrazolium salt XTT in orange formazan dye by the respiratory chain of viable cells (Roehm, N W, et al., J Immunol Methods 142:257-265, 1991). Cells seeded at a concentration of 5000/well in 100 μl medium in a 96-well plate were treated with different drugs in the given concentration. After 24 or 48 h the cells were incubated, according to the manufacturer's protocol, with XTT labelling mixture. After 4 h the formazan dye is quantified using a scanning multiwell spectrophotometer with a 495-nm filter. The absorbance is directly correlated with the number of viable cells. The standard absorbance curve was drawn by means of untreated cells seeded at a concentration of from 1000 to 10 000 cells/well with an increasing rate of 1000 cells/well. All standards and experiments were performed in triplicates.
(§5) Cells of said cell lines were seeded in 96-well plates (25 000 cells/well, medium volume per well was 100 μl), in […] medium supplemented with fetal calf serum. After 24 h picropodophyllin and the derivatives alpha-apopicropodophyllin and beta-apopicropodo-phyllin were added at different concentrations and the cells were incubated for 72 h. Cell viability was then assayed (see above). […] The results are based on 3 different experiments.
(§6) The leukemia cell lines K562/S, […], HL60/0 and HL60/Nov were cultured in 96-well plates as described in Experiment 7. After 24 h, the cells were treated for 72 h with different concentrations of the anti-cancer agent vincristine, with and without co-incubation with 0.05 μM picropodophyllin. […] Cell viability was then assayed. IC50 values for each inhibitor and cell line are shown below (Table 8). The results are based on 3 different experiments.

Series [3] has as its system K562/Vcr30 chronic myeloid leukemia cells. In words: Leukemia cell viability, K562/Vcr30. It counts as cell-based, human. To be noted: Homo sapiens; K562/Vcr30, 72 h; read-out: IC50 for cell viability. As for the experimental part:
as §3, §4, §5, §6

The subject of series [4] is HL60/Nov acute myeloid leukemia cells. In words: Leukemia cell viability, HL60/Nov. The format is cell-based, human. To be noted: Homo sapiens, HL-60, 72 h, read-out: IC50 for cell viability. As for the experimental part: as §3, §4, §5, §6
Series [5] has as its system leukemia cell lines (K562/S, K562/Vcr30, HL60/0 and HL60/Nov). In words: Leukemia cell viability, summary over the four cell lines. The format is cell-based, human. To be noted: 72 h. As for the experimental part:
as §3
as §4, with “After 24 or 48 h the cells were incubated, according to the manufacturer's protocol, with XTT labelling mixture.” left out, “All standards and experiments were performed in triplicates.” left out

Series [6] relates to microtubule polymerisation. To be noted: cited from earlier work.
The conditions of series [7]: rats; cited from earlier work.
For series [8], the target named is IGF-1R (Homo sapiens, UniProt P08069). In words: In vitro tyrosine kinase assay: IGF-1R-catalyzed substrate phosphorylation of polyTyrGlu (pTG), cell-free. The settings on record: FIG. 3. It counts as biochemical. Further details: expressed in transfected cells; host or cells: P6 cell line (murine fibroblasts overexpressing human IGF-1R); receptor captured on plates with an antibody to the beta subunit. As for the experimental part:
as §1, §2

Series [9] has as its system DWB malignant melanoma cell line. Description: Cell viability (XTT), DWB. It counts as cell-based. To be noted: 48 h. As for the experimental part: as §4
12 different types of cell lines were seeded in 96-well plates (medium volume in a well was 100 μl), at a concentration of 10,000 cells/cm^2 in Minimal Essential Medium supplemented with fetal calf serum. When the cells had reached a concentration of 65,000 cells/cm^2, they were treated with different doses of podophyllotoxin and picropodophyllin for 48 h. Cell viability was then assayed (see above). […]

The nature of series [10]: Water solubility. It counts as physicochemical.

Molecules are shown by their SMILES. pEC50, pIC50: −log10 of the molar value. Converted amounts (≈) assume the structure as drawn.

T1 sequence (P06213 28-1382): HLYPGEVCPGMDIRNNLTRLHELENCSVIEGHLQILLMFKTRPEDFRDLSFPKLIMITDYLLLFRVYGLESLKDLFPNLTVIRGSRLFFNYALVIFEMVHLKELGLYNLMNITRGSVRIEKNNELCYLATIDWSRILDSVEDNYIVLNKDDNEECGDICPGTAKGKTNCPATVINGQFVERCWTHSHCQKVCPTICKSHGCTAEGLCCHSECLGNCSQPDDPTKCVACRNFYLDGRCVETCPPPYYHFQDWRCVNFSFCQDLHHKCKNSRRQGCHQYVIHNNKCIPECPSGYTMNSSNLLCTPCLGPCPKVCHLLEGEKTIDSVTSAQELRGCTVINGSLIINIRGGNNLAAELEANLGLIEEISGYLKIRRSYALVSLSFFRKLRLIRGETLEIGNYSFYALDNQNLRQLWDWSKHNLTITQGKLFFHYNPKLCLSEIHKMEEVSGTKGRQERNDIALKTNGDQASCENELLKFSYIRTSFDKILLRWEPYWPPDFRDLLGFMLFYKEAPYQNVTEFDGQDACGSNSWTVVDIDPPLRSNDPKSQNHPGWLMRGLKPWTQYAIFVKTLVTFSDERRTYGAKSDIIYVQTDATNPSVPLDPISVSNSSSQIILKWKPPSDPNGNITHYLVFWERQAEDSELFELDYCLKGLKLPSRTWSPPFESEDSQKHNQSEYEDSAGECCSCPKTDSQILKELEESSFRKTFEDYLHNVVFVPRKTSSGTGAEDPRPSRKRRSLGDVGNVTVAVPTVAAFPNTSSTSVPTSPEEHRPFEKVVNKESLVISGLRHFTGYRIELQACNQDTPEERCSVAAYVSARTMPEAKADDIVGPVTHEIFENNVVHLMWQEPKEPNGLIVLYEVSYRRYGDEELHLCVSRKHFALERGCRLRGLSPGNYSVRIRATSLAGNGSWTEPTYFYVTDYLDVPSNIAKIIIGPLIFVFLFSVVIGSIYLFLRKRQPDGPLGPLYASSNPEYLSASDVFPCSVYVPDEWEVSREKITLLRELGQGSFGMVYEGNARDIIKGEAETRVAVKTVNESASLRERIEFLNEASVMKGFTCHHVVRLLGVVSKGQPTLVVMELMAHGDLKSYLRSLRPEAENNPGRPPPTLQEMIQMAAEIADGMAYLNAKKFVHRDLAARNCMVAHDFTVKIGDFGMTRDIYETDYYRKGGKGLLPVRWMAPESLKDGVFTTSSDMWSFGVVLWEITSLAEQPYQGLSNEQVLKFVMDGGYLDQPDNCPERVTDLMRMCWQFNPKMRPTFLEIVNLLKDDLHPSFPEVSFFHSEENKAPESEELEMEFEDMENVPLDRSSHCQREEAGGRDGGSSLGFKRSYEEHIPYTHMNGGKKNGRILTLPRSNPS
Chain of IGF-1R (P08069 31-1367): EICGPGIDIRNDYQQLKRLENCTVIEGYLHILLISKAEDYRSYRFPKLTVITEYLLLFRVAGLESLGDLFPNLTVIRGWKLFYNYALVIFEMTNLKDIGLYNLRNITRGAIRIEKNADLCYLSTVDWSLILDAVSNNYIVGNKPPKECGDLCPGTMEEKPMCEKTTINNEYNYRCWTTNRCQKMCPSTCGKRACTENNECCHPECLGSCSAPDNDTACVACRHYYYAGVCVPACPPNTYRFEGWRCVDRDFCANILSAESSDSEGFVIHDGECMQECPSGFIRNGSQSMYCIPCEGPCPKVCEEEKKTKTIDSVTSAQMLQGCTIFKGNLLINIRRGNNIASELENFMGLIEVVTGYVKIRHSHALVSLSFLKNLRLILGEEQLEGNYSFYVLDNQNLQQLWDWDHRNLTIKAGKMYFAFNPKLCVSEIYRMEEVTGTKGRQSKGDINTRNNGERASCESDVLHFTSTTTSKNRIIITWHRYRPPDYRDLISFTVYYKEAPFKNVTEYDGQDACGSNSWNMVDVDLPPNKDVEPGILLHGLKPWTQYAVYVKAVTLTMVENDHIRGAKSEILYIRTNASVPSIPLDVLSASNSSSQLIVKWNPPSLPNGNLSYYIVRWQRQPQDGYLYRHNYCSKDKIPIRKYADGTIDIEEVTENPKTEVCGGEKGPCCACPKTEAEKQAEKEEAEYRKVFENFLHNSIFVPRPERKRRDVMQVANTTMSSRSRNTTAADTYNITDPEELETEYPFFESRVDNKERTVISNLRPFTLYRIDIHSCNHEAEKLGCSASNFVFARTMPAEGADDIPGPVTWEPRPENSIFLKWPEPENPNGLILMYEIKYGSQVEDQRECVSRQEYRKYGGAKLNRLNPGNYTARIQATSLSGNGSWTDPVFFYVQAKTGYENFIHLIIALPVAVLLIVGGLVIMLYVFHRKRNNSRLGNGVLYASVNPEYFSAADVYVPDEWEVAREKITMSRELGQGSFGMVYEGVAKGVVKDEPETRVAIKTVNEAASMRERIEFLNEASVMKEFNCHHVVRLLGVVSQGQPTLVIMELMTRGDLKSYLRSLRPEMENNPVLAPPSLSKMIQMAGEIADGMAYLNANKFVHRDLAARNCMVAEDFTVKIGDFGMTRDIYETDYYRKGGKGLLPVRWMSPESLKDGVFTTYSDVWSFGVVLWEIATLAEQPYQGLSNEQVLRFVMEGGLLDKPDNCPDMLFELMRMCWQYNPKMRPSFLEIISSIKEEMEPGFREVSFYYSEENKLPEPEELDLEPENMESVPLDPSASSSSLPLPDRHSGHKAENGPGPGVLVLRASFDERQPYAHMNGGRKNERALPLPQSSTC

For the molecule `COc1cc([C@@H]2c3cc4c(cc3[C@H](O)[C@H]3COC(=O)[C@@H]23)OCO4)cc(OC)c1OC` [Picropodophyllin, picropodophyllin], in [1], the “Interference with substrate phosphorylation of IR tyrosine kinase” value is reported as “failed to interfere”. The pIC50 in series [2] is 6.49; in [3], < 6.30; in series [4] it was 6.96; in series [5] (Homo sapiens, read-out: Concentration needed to cause 50% cell death), 6.49 to 6.96; in series [8], 8.22. In series [5] (leukemia cell lines, 0.05 μM), the “Cell death in the tumor cells” value is “did not cause any detectable cell death”. Besides, the “Fold lower inhibitory effect on microtubule polymerisation than podophyllotoxin” value in series [6] is listed as 50 fold. Also, the “Fold higher LD50 than podophyllotoxin” value in series [7] is given as “more than 35 fold”.
`COc1cc([C@@H]2c3cc4c(cc3[C@H](O)[C@H]3COC(=O)[C@H]23)OCO4)cc(OC)c1OC` [Podophyllotoxin, podophyllotoxin]: the pEC50 in [9] is 7.40. The solubility in series [10] was in the range of 100 to 200 µM (≈ 41.4 to 82.9 µg/mL).

For orientation: pEC50 means −log10 of the EC50, conventionally taken in molar units. Read a low pEC50 as a large EC50. As usually defined, the solubility is the concentration that dissolves in the medium under given conditions. Low values mean a poorly soluble substance, high ones a readily soluble substance.
